In patent publication US6469142B1, “Human N-methyl-D-aspartate receptor subunits, nucleic acids encoding same and uses therefor” (Merck & Co., Inc., priority 1993, dated 2002):

Assays:
NMDA receptors = assay: [3H]-CGP39653 binding to rat buffy coat homogenate; details: 150 μg rat buffy coat homogenate; 60 min at 4° C.; read-out: Kd (Scatchard analysis, single class of binding sites)
Experimental: 21:161]. […] The wash step is repeated once more. The final suspension is divided into aliquots, centrifuged.
The binding of [^3H]-CGP39653 to rat brain membranes is carried out as described by Sills et al. [(1991) Eur. J. Pharmacol. 192:19]. The buffy coat membrane pellet is resuspended in 50 volumes of 5 mM Tris-HCl containing 10 mM EDTA, pH 7.7, and incubated for 10 min. at 37° C. The supernatant is centrifuged at 48,000×g for 10 min. at 4° C. The wash step is repeated once and the pellet is resuspended in 10 ml of 5 mM Tris-HCl containing 10 mM EDTA, pH 7.7. […] Unbound radioactivity is removed with two washes of 3 ml each of ice-cold buffer.
Saturation analysis of [^3H]-CGP39653 binding was carried out by incubating 150 μg of rat buffy coat homogenate with increasing concentrations of [^3H]-CGP39653 for 60 min at 4° C.

[1] = biological target: T1, human NMDAR1A + NMDAR2A + NMDAR2C (Homo sapiens, UniProt Q05586+Q12879+Q14957); assay: cell-based
T1 construct: other: 50 ng each transcript; co-applied with 100 μM NMDA; mean±S.D. of
Experimental: (§1) Xenopus oocytes were injected with in vitro transcripts prepared from constructs containing DNA encoding human NMDA receptor NMDAR1 and NMDAR2 subunits. Electrophysiological measurements of the oocyte transmembrane currents were made using the two-electrode voltage clamp technique (see e.g., Stuhmer (1992) Meth. Enzymol. 207:319-339).
(§2) Recombinant capped transcripts of NMDA receptor subunit cDNAs contained in constructs NMDAR1A, NMDAR1-I63, NMDAR1-I63-Δ204, NMDAR1-Δ1087, NMDAR1-Δ363, and pCMV-26-NotI-24 were synthesized from linearized plasmids using the mCAP RNA Capping Kit (Cat. #200350, Stratagene, Inc., La Jolla, Calif.). For experiments in which NMDAR2A or NMDAR2B and NMDAR1 or NMDAR1-I63 transcripts were co-injected into Xenopus oocytes, the transcripts were synthesized from linearized constructs NMDAR1A, NMDAR1-I63, pCMV-hNMDAR2A-3(53), pCMV-26-NotI-24 and pBS-hNMDAR2B using mMessage mMachine (Ambion, catalog #1344, Austin, Tex.). The mass of each synthesized transcript was determined by UV absorbance and the integrity of each transcript was determined by electrophoresis through an agarose gel.
(§3) Xenopus oocytes were injected with 12.5-50 ng of one or more NMDA receptor subunit transcripts per oocyte. The preparation and injection of oocytes were carried out as described by Dascal [(1987) Crit. Rev. Biochem. 22:317-387]. […]

human NMDAR1A + NMDAR2A = biological target: T2, human NMDAR1A + NMDAR2A (Homo sapiens, UniProt Q05586+Q12879); assay: Two-electrode voltage clamp of Xenopus oocytes co-injected with NMDAR1A and pCMV-hNMDAR2A-3(53) transcripts; type: cell-based
T2 construct: to generate the full-length construct NMDAR1A; Full-length DNAs encoding human NMDA receptor subunits have been inserted into vectors pcDNA1, pMMTVT7(+), pCMV-T7-2 and pCMV-T7-3; expressed in transfected cells; host or cells: Xenopus oocytes co-injected with in vitro transcripts
T2 sequence (Q12879 23-1464, other chains not shown): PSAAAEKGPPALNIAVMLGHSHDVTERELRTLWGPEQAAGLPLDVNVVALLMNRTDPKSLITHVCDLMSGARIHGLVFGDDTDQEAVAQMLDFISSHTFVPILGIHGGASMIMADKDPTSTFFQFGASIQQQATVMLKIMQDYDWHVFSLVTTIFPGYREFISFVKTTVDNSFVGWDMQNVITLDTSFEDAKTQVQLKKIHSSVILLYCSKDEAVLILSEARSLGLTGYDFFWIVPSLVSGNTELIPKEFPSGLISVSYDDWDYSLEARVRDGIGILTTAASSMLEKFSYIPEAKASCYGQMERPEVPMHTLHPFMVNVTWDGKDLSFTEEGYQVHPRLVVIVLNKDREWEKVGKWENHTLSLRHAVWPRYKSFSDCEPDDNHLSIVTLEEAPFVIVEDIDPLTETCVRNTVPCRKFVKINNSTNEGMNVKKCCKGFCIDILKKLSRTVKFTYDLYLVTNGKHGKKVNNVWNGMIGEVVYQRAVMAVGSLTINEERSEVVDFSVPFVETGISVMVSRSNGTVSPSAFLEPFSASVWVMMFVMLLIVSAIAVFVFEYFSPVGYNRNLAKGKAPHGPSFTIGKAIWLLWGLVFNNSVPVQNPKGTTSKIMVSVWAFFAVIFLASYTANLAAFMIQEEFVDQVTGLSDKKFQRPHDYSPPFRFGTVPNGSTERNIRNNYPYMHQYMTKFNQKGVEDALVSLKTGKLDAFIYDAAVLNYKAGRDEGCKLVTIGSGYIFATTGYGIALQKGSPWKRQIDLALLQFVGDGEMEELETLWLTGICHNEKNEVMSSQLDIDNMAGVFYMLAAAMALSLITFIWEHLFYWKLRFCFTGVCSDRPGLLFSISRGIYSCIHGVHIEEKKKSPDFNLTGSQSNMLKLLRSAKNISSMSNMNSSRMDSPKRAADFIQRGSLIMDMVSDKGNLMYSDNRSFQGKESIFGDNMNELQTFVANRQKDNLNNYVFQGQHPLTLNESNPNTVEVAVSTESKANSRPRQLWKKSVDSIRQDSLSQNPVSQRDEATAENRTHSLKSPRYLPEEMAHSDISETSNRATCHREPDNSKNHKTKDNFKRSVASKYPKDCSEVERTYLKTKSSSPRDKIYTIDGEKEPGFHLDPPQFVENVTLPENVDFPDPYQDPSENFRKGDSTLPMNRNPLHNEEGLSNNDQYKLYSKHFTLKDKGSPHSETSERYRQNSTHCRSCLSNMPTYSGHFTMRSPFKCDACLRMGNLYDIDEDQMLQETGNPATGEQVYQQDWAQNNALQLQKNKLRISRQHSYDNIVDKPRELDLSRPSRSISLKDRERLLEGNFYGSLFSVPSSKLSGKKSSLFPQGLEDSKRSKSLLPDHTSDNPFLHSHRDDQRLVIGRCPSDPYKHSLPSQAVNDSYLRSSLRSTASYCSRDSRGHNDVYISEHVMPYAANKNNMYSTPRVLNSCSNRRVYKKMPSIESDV
Experimental: as §1, §2, §3

[2] = system: recombinant human NMDA receptors; assay: Antagonist block of agonist-induced currents in oocytes injected with NMDA receptor subunit transcripts (summary of Table 1); type: cell-based; details: 0.1-1.0 mM MgCl2 or 1 μM MK801
Experimental: as §1
Xenopus oocytes were injected with 12.5-50 ng of one or more NMDA receptor subunit transcripts per oocyte. The preparation and injection of oocytes were carried out as described by Dascal [(1987) Crit. Rev. Biochem. 22:317-387]. Two-to-six days following mRNA injection, the oocytes were examined using the two-electrode voltage clamp technique. The cells were bathed in Ringer's solution (115 mM NaCl, 2.5 mM KCl, 1.8 mM CaCl2, 10 mM HEPES, pH 7.3), and the membrane potential was clamped at −80 to −100 mV. Drugs were applied by pipetting 6.0 μl aliquots of drug-containing solution directly into the bath, or by using gravity-feed into a Warner Instruments chamber (volume=110 μl) at a flow rate of 8 ml/min. The data were sampled at 2-5 Hz with a Labmaster data acquisition board in a PC-386 using AXOTAPE version 1.2 (Axon Instruments, Foster City, Calif.) software. The data were exported to a laser printer or plotted using Sigmaplot version 5.0. […]

SMILES: CCCC(=CC(N)C(=O)O)CP(=O)(O)O (centres unmarked) [[^3H]-CGP39653]
- Kd (NMDA receptors): 12.3 ± 0.12 nM

SMILES: NCC(=O)O [glycine]
- EC50 [1]: 870 ± 240 nM
- EC50 (human NMDAR1A + NMDAR2A): 1900 ± 260 nM

SMILES: C[C@]12N[C@H](Cc3ccccc31)c1ccccc12 [MK801]
- Block of NMDA agonist-induced currents, in general [2]: blocked

SMILES: [Cl-].[Cl-].[Mg+2] [MgCl2]
- Block of NMDA agonist-induced currents, in general [2]: blocked
